Measured values from ChEMBL document CHEMBL4507320, “Data for DCP probe NVS-MALT1” (2021).

Columns and labels:
[1] = system: Tyrosine-protein kinase ABL1 (Homo sapiens), P00519 [E255K]; details: Compound concentration 1000.0 nM
[2] = target: Activin receptor type-1 (Homo sapiens) (UniProt Q04771); details: Compound concentration 1000.0 nM
[3] = target: Atypical kinase COQ8B, mitochondrial (Homo sapiens) (UniProt Q96D53); details: Compound concentration 1000.0 nM
[4] = target: Mitogen-activated protein kinase kinase kinase 5 (Homo sapiens) (UniProt Q99683); details: Compound concentration 1000.0 nM
Chain of Mitogen-activated protein kinase kinase kinase 5 (Homo sapiens) (Q99683 whole entry): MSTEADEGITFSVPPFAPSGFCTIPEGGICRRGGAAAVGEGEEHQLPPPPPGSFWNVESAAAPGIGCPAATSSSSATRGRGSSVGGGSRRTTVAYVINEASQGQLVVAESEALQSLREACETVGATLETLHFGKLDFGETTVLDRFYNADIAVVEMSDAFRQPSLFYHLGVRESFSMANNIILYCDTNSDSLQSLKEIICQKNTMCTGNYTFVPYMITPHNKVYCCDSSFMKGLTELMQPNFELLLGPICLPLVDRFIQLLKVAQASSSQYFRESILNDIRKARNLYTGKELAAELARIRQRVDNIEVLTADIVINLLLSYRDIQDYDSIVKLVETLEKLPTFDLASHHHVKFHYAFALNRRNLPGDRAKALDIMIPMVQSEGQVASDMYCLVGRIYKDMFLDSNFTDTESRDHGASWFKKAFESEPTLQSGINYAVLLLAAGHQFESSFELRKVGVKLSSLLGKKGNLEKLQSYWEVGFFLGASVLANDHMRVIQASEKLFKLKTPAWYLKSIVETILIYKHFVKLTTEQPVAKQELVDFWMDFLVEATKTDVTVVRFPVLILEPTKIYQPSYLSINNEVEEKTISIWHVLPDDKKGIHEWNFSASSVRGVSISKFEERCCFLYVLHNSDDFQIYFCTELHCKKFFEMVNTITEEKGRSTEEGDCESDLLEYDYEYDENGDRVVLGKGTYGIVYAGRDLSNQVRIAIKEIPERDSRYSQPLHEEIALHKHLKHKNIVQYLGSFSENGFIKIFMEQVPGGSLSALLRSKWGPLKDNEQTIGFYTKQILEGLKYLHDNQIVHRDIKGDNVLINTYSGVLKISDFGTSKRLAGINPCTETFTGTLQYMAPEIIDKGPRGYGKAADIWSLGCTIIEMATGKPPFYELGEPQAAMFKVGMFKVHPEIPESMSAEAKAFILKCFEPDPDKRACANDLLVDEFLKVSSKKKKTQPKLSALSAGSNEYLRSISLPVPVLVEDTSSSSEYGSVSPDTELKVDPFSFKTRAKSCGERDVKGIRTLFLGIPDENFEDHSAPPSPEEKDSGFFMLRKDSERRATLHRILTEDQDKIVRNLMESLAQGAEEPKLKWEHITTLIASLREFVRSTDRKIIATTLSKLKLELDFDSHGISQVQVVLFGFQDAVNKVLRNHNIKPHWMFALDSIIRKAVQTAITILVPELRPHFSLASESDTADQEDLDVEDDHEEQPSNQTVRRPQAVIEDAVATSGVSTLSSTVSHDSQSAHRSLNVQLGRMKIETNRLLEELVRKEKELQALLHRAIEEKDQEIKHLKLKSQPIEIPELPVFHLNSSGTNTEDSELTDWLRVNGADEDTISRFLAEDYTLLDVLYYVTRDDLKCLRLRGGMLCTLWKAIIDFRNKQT

[5] = target: Aurora kinase A (Homo sapiens) (UniProt O14965); details: Compound concentration 1000.0 nM
Chain of Aurora kinase A (Homo sapiens) (O14965 whole entry): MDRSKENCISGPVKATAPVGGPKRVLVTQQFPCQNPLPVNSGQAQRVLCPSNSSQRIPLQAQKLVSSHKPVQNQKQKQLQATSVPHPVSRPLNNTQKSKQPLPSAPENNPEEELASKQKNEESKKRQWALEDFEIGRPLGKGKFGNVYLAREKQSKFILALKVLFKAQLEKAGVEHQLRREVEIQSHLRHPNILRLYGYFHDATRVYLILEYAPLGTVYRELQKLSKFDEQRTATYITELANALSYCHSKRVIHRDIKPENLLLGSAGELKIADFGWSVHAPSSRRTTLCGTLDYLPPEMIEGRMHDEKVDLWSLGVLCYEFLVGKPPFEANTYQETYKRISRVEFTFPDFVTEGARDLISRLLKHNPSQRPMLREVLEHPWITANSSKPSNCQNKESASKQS

[6] = target: Cyclin-dependent kinase 19 (Homo sapiens) (UniProt Q9BWU1); details: Compound concentration 1000.0 nM
[7] = target: Casein kinase I isoform epsilon (Homo sapiens) (UniProt P49674); details: Compound concentration 1000.0 nM
Chain of Casein kinase I isoform epsilon (Homo sapiens) (P49674 whole entry, looked up, canonical isoform): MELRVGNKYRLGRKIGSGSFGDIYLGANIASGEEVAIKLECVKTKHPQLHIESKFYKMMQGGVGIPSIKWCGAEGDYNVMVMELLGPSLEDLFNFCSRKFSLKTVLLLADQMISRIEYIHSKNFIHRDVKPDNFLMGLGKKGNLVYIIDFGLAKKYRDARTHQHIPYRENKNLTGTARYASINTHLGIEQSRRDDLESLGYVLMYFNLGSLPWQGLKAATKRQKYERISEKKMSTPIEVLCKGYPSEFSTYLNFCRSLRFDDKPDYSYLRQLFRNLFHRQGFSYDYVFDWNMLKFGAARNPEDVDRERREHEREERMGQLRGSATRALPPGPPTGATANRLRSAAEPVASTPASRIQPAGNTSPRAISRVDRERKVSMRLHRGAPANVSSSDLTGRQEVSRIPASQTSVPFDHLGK

[8] = target: Megakaryocyte-associated tyrosine-protein kinase (Homo sapiens) (UniProt P42679); details: Compound concentration 1000.0 nM
[9] = system: Epidermal growth factor receptor (Homo sapiens), P00533 [UNDEFINED MUTATION]; details: Compound concentration 1000.0 nM
[10] = system: Epidermal growth factor receptor (Homo sapiens), P00533 [UNDEFINED MUTATION]; details: Compound concentration 1000.0 nM; remark: listed apart in the source
[11] = system: Epidermal growth factor receptor (Homo sapiens), P00533 [L858R,T790M]; details: Compound concentration 1000.0 nM
[12] = target: Ephrin type-B receptor 1 (Homo sapiens) (UniProt P54762); details: Compound concentration 1000.0 nM
[13] = target: Mitogen-activated protein kinase 7 (Homo sapiens) (UniProt Q13164); details: Compound concentration 1000.0 nM
Chain of Mitogen-activated protein kinase 7 (Homo sapiens) (Q13164 2-816 limits assumed): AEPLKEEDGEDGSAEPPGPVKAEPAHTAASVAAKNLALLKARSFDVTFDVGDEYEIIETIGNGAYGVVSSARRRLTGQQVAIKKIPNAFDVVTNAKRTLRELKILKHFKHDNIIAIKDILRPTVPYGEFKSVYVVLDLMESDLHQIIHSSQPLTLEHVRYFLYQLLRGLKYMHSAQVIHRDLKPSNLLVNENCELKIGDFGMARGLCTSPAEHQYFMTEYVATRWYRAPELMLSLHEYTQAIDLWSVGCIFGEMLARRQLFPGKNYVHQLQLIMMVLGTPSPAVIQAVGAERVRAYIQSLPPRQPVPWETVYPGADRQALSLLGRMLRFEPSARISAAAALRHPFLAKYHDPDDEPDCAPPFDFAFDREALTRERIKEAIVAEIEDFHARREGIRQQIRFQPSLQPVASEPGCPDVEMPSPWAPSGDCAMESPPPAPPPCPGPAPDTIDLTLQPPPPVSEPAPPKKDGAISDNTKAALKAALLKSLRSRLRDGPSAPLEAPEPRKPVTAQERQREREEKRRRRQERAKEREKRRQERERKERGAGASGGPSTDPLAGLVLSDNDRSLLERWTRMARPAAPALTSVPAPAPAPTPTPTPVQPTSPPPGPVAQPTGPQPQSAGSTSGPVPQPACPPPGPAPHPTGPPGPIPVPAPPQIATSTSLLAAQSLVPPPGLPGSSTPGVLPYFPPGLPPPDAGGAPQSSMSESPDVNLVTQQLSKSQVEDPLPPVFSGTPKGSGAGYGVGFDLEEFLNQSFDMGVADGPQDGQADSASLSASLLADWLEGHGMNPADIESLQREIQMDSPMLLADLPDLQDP

[14] = target: Vascular endothelial growth factor receptor 3 (Homo sapiens) (UniProt P35916); details: Compound concentration 1000.0 nM
[15] = target: G protein-coupled receptor kinase 3 (Homo sapiens) (UniProt P35626); details: Compound concentration 1000.0 nM
[16] = target: Inhibitor of nuclear factor kappa-B kinase subunit beta (Homo sapiens) (UniProt O14920); details: Compound concentration 1000.0 nM
[17] = target: Tyrosine-protein kinase JAK3 (Homo sapiens) (UniProt P52333); details: Compound concentration 1000.0 nM
[18] = system: Mast/stem cell growth factor receptor Kit (Homo sapiens), P10721 [D816H]; details: Compound concentration 1000.0 nM
[19] = target: Mitogen-activated protein kinase kinase kinase 4 (Homo sapiens) (UniProt Q9Y6R4); details: Compound concentration 1000.0 nM
[20] = target: Mitogen-activated protein kinase kinase kinase kinase 2 (Homo sapiens) (UniProt Q12851); details: Compound concentration 1000.0 nM
[21] = target: MAP/microtubule affinity-regulating kinase 3 (Homo sapiens) (UniProt P27448); details: Compound concentration 1000.0 nM
[22] = target: Myosin light chain kinase (Homo sapiens) (UniProt Q32MK0); details: Compound concentration 1000.0 nM
[23] = target: Serine/threonine-protein kinase 3 (Homo sapiens) (UniProt Q13188); details: Compound concentration 1000.0 nM
Chain of Serine/threonine-protein kinase 3 (Homo sapiens) (Q13188 whole entry): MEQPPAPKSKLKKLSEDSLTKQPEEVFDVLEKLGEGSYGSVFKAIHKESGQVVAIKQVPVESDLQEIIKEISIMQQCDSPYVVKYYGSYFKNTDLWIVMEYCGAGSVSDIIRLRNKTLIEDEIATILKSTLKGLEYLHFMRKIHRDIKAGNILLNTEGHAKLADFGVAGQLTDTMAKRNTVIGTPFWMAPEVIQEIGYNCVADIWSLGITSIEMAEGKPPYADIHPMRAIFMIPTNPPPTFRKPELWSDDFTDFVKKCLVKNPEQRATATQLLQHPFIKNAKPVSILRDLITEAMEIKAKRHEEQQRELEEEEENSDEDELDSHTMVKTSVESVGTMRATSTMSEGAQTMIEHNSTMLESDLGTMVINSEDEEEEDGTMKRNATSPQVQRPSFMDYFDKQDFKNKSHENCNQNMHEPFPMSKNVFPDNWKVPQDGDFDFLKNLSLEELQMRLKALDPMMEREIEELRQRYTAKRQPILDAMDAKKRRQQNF

[24] = target: Serine/threonine-protein kinase NIM1 (Homo sapiens) (UniProt Q8IY84); details: Compound concentration 1000.0 nM
Chain of Serine/threonine-protein kinase NIM1 (Homo sapiens) (Q8IY84 whole entry): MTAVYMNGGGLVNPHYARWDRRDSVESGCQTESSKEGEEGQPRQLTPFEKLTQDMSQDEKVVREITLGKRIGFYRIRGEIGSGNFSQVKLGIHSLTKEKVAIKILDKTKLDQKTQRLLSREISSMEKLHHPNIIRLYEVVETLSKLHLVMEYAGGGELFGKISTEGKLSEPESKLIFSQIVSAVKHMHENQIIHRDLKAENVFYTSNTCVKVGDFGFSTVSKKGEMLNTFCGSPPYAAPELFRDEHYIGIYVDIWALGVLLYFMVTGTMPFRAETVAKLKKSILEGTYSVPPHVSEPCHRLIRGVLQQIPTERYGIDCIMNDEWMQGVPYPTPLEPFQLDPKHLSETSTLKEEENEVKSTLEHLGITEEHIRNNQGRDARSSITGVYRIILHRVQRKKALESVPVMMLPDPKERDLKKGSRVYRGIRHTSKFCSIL

[25] = target: Serine/threonine-protein kinase PAK 3 (Homo sapiens) (UniProt O75914); details: Compound concentration 1000.0 nM
[26] = target: Serine/threonine-protein kinase PAK 5 (Homo sapiens) (UniProt Q9P286); details: Compound concentration 1000.0 nM
[27] = system: Phosphatidylinositol 4,5-bisphosphate 3-kinase catalytic subunit alpha isoform (Homo sapiens), P42336 [E542K]; details: Compound concentration 1000.0 nM
[28] = system: Phosphatidylinositol 4,5-bisphosphate 3-kinase catalytic subunit alpha isoform (Homo sapiens), P42336 [E545K]; details: Compound concentration 1000.0 nM
[29] = system: Phosphatidylinositol 4,5-bisphosphate 3-kinase catalytic subunit alpha isoform (Homo sapiens), P42336 [H1047L]; details: Compound concentration 1000.0 nM
[30] = target: Phosphatidylinositol 4-phosphate 5-kinase type-1 gamma (Homo sapiens) (UniProt O60331); details: Compound concentration 1000.0 nM
[31] = target: Phosphatidylinositol 5-phosphate 4-kinase type-2 gamma (Homo sapiens) (UniProt Q8TBX8); details: Compound concentration 1000.0 nM
Chain of Phosphatidylinositol 5-phosphate 4-kinase type-2 gamma (Homo sapiens) (Q8TBX8 whole entry): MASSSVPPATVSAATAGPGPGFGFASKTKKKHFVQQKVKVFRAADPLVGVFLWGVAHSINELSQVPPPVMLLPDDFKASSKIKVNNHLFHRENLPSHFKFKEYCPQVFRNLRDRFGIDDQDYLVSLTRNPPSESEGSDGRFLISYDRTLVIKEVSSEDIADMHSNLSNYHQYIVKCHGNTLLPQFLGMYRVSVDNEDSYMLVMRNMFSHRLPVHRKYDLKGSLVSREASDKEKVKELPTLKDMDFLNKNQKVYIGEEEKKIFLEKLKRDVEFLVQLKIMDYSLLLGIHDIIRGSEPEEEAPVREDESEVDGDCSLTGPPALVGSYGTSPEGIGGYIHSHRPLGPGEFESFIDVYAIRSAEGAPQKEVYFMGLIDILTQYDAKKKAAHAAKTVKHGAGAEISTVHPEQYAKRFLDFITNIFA

[32] = target: Receptor-interacting serine/threonine-protein kinase 4 (Homo sapiens) (UniProt P57078); details: Compound concentration 1000.0 nM
[33] = target: Proto-oncogene tyrosine-protein kinase ROS (Homo sapiens) (UniProt P08922); details: Compound concentration 1000.0 nM
[34] = target: Ribosomal protein S6 kinase alpha-3 (Homo sapiens) (UniProt P51812); details: Compound concentration 1000.0 nM
[35] = target: SRSF protein kinase 2 (Homo sapiens) (UniProt P78362); details: Compound concentration 1000.0 nM
Chain of SRSF protein kinase 2 (Homo sapiens) (P78362 whole entry, looked up): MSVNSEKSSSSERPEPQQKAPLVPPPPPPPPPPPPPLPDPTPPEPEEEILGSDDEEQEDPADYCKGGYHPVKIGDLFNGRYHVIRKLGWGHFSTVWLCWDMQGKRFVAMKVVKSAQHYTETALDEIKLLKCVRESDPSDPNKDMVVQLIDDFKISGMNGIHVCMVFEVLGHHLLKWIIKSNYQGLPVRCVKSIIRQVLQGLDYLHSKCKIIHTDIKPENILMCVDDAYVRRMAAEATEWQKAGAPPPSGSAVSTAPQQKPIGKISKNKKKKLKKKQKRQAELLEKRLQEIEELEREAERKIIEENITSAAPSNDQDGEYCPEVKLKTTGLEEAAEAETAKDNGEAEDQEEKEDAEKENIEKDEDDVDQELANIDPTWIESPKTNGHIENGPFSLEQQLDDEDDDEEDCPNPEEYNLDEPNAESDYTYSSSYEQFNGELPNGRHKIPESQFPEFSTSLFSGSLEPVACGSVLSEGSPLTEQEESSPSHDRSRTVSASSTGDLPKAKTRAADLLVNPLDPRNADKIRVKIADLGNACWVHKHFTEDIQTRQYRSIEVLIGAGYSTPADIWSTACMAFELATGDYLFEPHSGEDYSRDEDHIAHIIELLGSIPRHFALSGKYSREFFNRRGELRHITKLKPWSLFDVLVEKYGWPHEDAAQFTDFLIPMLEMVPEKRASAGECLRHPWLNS

[36] = target: Serine/threonine-protein kinase TBK1 (Homo sapiens) (UniProt Q9UHD2); details: Compound concentration 1000.0 nM
[37] = target: Tyrosine-protein kinase Tec (Homo sapiens) (UniProt P42680); details: Compound concentration 1000.0 nM
[38] = target: Non-receptor tyrosine-protein kinase TNK1 (Homo sapiens) (UniProt Q13470); details: Compound concentration 1000.0 nM
[39] = target: Serine/threonine-protein kinase ULK1 (Homo sapiens) (UniProt O75385); details: Compound concentration 1000.0 nM
[40] = target: Serine/threonine-protein kinase ULK2 (Homo sapiens) (UniProt Q8IYT8); details: Compound concentration 1000.0 nM
[41] = target: Serine/threonine-protein kinase ULK3 (Homo sapiens) (UniProt Q6PHR2); details: Compound concentration 1000.0 nM
[42] = target: Serine/threonine-protein kinase WNK3 (Homo sapiens) (UniProt Q9BYP7); details: Compound concentration 1000.0 nM
[43] = target: 5-hydroxytryptamine receptor 2C (Homo sapiens) (UniProt P28335); details: Compound concentration 10.0 uM
[44] = target: Histamine H2 receptor (Homo sapiens) (UniProt P25021); details: Compound concentration 10.0 uM
[45] = target: Muscarinic acetylcholine receptor M4 (Homo sapiens) (UniProt P08173); details: Compound concentration 10.0 uM

**Q.** What does the source list for `CO[C@@H](C)c1c(Nc2ccc([C@@H](N(C)C(=O)C3CCS(=O)(=O)CC3)C(F)(F)F)cc2)cnc2cc(Cl)nn12` [NVS-MALT1-C]?
**A.** residual activity [1]: 75%; residual activity [2]: 85%; residual activity [3]: 96%; residual activity [4]: 81%; residual activity [5]: 100%; residual activity [6]: 81%; residual activity [7]: 59%; residual activity [8]: 98%; residual activity [9]: 100%; residual activity [10]: 100%; residual activity [11]: 72%; residual activity [12]: 92%; residual activity [13]: 100%; residual activity [14]: 84%; residual activity [15]: 91%; residual activity [16]: 100%; residual activity [17]: 98%; residual activity [18]: 100%; residual activity [19]: 89%; residual activity [20]: 100%; residual activity [21]: 100%; residual activity [22]: 87%; residual activity [23]: 100%; residual activity [24]: 85%; residual activity [25]: 100%; residual activity [26]: 100%; residual activity [27]: 78%; residual activity [28]: 62%; residual activity [29]: 98%; residual activity [30]: 100%; residual activity [31]: 58%; residual activity [32]: 100%; residual activity [33]: 82%; residual activity [34]: 100%; residual activity [35]: 99%; residual activity [36]: 77%; residual activity [37]: 82%; residual activity [38]: 87%; residual activity [39]: 100%; residual activity [40]: 92%; residual activity [41]: 97%; residual activity [42]: 84%; inhibition [43]: 3.25%; inhibition [44]: 5.46%; inhibition [45]: 21.1%

**Q.** With `CO[C@@H](C)c1c(Nc2ccc([C@H](N(C)C(=O)C3CCS(=O)(=O)CC3)C(F)(F)F)cc2)cnc2cc(Cl)nn12` [NVS-MALT1] as the compound, how does the residual activity [1] read?
**A.** Its residual activity is 76%.

**Q.** What about the residual activity [2] of the same compound?
**A.** Its residual activity is 94%.

**Q.** And the residual activity [3]?
**A.** Its residual activity is 77%.

**Q.** What about the residual activity [4] of the same compound?
**A.** The residual activity was 84%.

**Q.** And the residual activity [5]?
**A.** Its residual activity is 100%.

**Q.** And the residual activity [6]?
**A.** Its residual activity is 73%.

**Q.** And the residual activity [7]?
**A.** Its residual activity is 66%.

**Q.** And the residual activity [8]?
**A.** Its residual activity is 99%.

**Q.** What about the residual activity [9] of the same compound?
**A.** Its residual activity is 98%.

**Q.** And the residual activity [10]?
**A.** Its residual activity is 100%.

**Q.** And the residual activity [11]?
**A.** The residual activity was 80%.

**Q.** And the residual activity [12]?
**A.** The residual activity was 86%.

**Q.** What about the residual activity [13] of the same compound?
**A.** Its residual activity is 92%.

**Q.** What about the residual activity [14] of the same compound?
**A.** Its residual activity is 89%.

**Q.** What about the residual activity [15] of the same compound?
**A.** The residual activity was 100%.

**Q.** And the residual activity [16]?
**A.** The residual activity was 100%.

**Q.** What about the residual activity [17] of the same compound?
**A.** The residual activity was 99%.

**Q.** And the residual activity [18]?
**A.** The residual activity was 100%.

**Q.** And the residual activity [19]?
**A.** The residual activity was 89%.

**Q.** What about the residual activity [20] of the same compound?
**A.** Its residual activity is 100%.

**Q.** What about the residual activity [21] of the same compound?
**A.** Its residual activity is 100%.

**Q.** And the residual activity [22]?
**A.** The residual activity was 84%.

**Q.** What about the residual activity [23] of the same compound?
**A.** The residual activity was 92%.

**Q.** And the residual activity [24]?
**A.** Its residual activity is 79%.

**Q.** And the residual activity [25]?
**A.** The residual activity was 100%.

**Q.** And the residual activity [26]?
**A.** Its residual activity is 100%.

**Q.** What about the residual activity [27] of the same compound?
**A.** Its residual activity is 71%.

**Q.** What about the residual activity [28] of the same compound?
**A.** The residual activity was 48%.

**Q.** And the residual activity [29]?
**A.** The residual activity was 92%.

**Q.** And the residual activity [30]?
**A.** The residual activity was 100%.

**Q.** What about the residual activity [31] of the same compound?
**A.** The residual activity was 91%.

**Q.** What about the residual activity [32] of the same compound?
**A.** The residual activity was 76%.

**Q.** And the residual activity [33]?
**A.** Its residual activity is 77%.

**Q.** And the residual activity [34]?
**A.** Its residual activity is 100%.

**Q.** What about the residual activity [35] of the same compound?
**A.** The residual activity was 100%.

**Q.** What about the residual activity [36] of the same compound?
**A.** Its residual activity is 59%.

**Q.** What about the residual activity [37] of the same compound?
**A.** The residual activity was 84%.

**Q.** What about the residual activity [38] of the same compound?
**A.** The residual activity was 100%.

**Q.** And the residual activity [39]?
**A.** Its residual activity is 100%.

**Q.** What about the residual activity [40] of the same compound?
**A.** Its residual activity is 96%.

**Q.** And the residual activity [41]?
**A.** Its residual activity is 94%.

**Q.** What about the residual activity [42] of the same compound?
**A.** The residual activity was 95%.

**Q.** And the inhibition [43]?
**A.** Its inhibition is -4.22%.

**Q.** What about the inhibition [44] of the same compound?
**A.** Its inhibition is -9.88%.

**Q.** What about the inhibition [45] of the same compound?
**A.** The inhibition was 21.3%.
